Values after ≈ are worked out from the molar mass of the structure shown.
Key:
[1] = system: H37Rv strain of Mycobacterium tuberculosis; assay: microbe, parasite or virus in culture; assay type: cell-based; conditions: for inhibition at 50 µg/mL / inhibition at 100 µg/mL / % Inhibition ± SD: M. Tb H37Rv, LRP assay; for inhibition at 50 µg/mL / inhibition at 100 µg/mL: read-out: % Inhibition ± SD
in vitro = assay type: cell-based; conditions: human
Method: HEK293 cells were grown in DMEM media containing 10% FBS and L-glutamine–penicillin–streptomycin solution at 37 °C in 5% CO2 condition. To perform MTT assay, 96 well tissue culture plate was seeded with […] number of cells. After 16 hours of seeding, cells were successfully attached to the culture plate and were treated with the active chemical compounds dissolved in DMSO at different concentrations as follows: 25 μg ml^−1, 50 μg ml^−1, 75 μg ml^−1 and 100 μg ml^−1. The cells were also treated with the DMSO to exclude the solvent-induced toxicity and used as an internal control. After 48 hours post active chemical compounds treatment, the MTT assay was performed as described previously.[45] MG-132, a potent proteasomal inhibitor and an inducer of apoptosis[46,47] was used as a positive control in the assay. Wells with media lacking any cells were as used as a negative control in the assay.
Tetrazolium-based […] cytotoxicity (MTT) assay is an important method to evaluate the viability of cells and it was performed for all the active chemical compounds using HEK293. To illustrate the percentage cell viability, the HEK293 cells were incubated with different concentrations of all active chemical compounds for 48 h. The compounds showing the viability of less than 50% of the cells were considered cytotoxic compounds. We observed that maximum compounds (such as 7, 9, 10, 13 and 25) show more than 75% of the cell viability at the highest concentration i.e. 100 μg ml^−1 for 48 hours of the treatment. Similarly, other compounds (such as 5, 6, 22, 26 and 31) show 70% cell viability upon 48 hours of the treatment. […] MG-132, a potent proteasomal inhibitor and an inducer of apoptosis was used as a positive control in the assay.

[2] = Mycobacterium tuberculosis, H37RV, 50 µg/ml
[3] = Mycobacterium tuberculosis, H37RV, 100 µg/ml

## C#CCOc1ccc(/C=N/Nc2nc(-c3ccccc3)cs2)cc1OCC [Compound 16]
[1]; [2]
  inhibition at 50 µg/mL: 40.5 ± 1.21%
[1]; [3]
  inhibition at 100 µg/mL: 48.7 ± 1.46%

## C#CCOc1ccc(/C=N/Nc2nc(-c3ccc(C)cc3)cs2)cc1OCC [Compound 23]
[1]; [2]
  inhibition at 50 µg/mL: 8.72 ± 0.26%
[1]; [3]
  inhibition at 100 µg/mL: 10.5 ± 0.31%
other
  melting point: 166 to 168 °C

## C#CCOc1ccccc1/C=N/Nc1nc(-c2ccccc2)cs1 [Compound 7]
In vitro
  viability at 48 h, 100 μg ml^−1: > 75%
[1]; [2]
  inhibition at 50 µg/mL: 51.7 ± 1.54%
other
  melting point: 183 to 185 °C

## C#CCOc1ccc(Br)cc1/C=N/Nc1nc(-c2ccc(Cl)c(Cl)c2)cs1 [Compound 28]
[1]; 100 µg/ml
  % Inhibition ± SD: 50%
[1]; [2]
  inhibition at 50 µg/mL: 43.8 ± 1.31%
[1]; [3]
  inhibition at 100 µg/mL: 50.2 ± 1.5%
other
  melting point: 213 to 215 °C

## C#CCOc1ccc(/C=N/Nc2nc(-c3ccc(Cl)cc3)cs2)cc1OCC [Compound 18]
[1]; [2]
  inhibition at 50 µg/mL: 6.36 ± 0.19%
[1]; [3]
  inhibition at 100 µg/mL: 17.8 ± 0.53%

## C#CCOc1ccc(Br)cc1/C=N/Nc1nc(-c2ccc(Cl)cc2)cs1 [Compound 27]
[1]; 100 µg/ml
  % Inhibition ± SD: 50%
[1]; [2]
  inhibition at 50 µg/mL: 38.1 ± 1.14%
[1]; [3]
  inhibition at 100 µg/mL: 52.7 ± 1.58%
other
  melting point: 209 to 211 °C

## C#CCOc1ccc(/C=N/Nc2nc(-c3ccc(OC)cc3)cs2)cc1OCC [Compound 24]
[1]; [2]
  inhibition at 50 µg/mL: 5.64 ± 0.16%
[1]; [3]
  inhibition at 100 µg/mL: 33 ± 0.98%
other
  melting point: 183 to 185 °C

## C#CCOc1ccccc1/C=N/Nc1nc(-c2ccc(Br)cc2)cs1 [Compound 11]
[1]; [2]
  inhibition at 50 µg/mL: 49.1 ± 1.47%
other
  melting point: 144 to 146 °C

## C#CCOc1ccc(Br)cc1/C=N/Nc1nc(-c2ccc(F)cc2)cs1 [Compound 26]
In vitro
  viability at 48 h, 100 μg ml^−1: 70%
[1]; [2]
  inhibition at 50 µg/mL: 50.7 ± 1.52%
[1]; [3]
  inhibition at 100 µg/mL: 57.7 ± 1.73%
other
  melting point: 207 to 209 °C

## C#CCOc1ccc(/C=N/Nc2nc(-c3ccc([N+](=O)[O-])cc3)cs2)cc1OCC [Compound 21]
[1]; [2]
  inhibition at 50 µg/mL: 48.7 ± 1.46%
[1]; [3]
  inhibition at 100 µg/mL: 50.9 ± 1.52%
other
  melting point: 191 to 193 °C

## C#CCOc1ccc(/C=N/Nc2nc(-c3ccc(C#N)cc3)cs2)cc1OCC [Compound 22]
In vitro
  viability at 48 h, 100 μg ml^−1: 70%
[1]; [2]
  inhibition at 50 µg/mL: 50.9 ± 1.52%
[1]; [3]
  inhibition at 100 µg/mL: 57.2 ± 1.71%

## C#CCOc1ccccc1/C=N/Nc1nc(-c2ccc(Cl)cc2)cs1 [Compound 9]
In vitro
  viability at 48 h, 100 μg ml^−1: > 75%
[1]; [2]
  inhibition at 50 µg/mL: 50.8 ± 1.52%
other
  melting point: 160 to 164 °C

## C#CCOc1ccccc1C=O [Compound 1]
[1]; [2]
  inhibition at 50 µg/mL: 39.3 ± 1.17%

## C#CCOc1ccccc1/C=N/Nc1nc(-c2ccc(Cl)c(Cl)c2)cs1 [Compound 10]
In vitro
  viability at 48 h, 100 μg ml^−1: > 75%
[1]; [2]
  inhibition at 50 µg/mL: 52 ± 1.56%

## CO[C@H]1/C=C/O[C@@]2(C)Oc3c(C)c(O)c4c(O)c(c(/C=N/N5CCN(C)CC5)c(O)c4c3C2=O)NC(=O)/C(C)=C\C=C\[C@H](C)[C@H](O)[C@@H](C)[C@@H](O)[C@@H](C)[C@H](OC(C)=O)[C@@H]1C [RIF, rifampicin, reference compound]
[1]; Mycobacterium tuberculosis, H37RV
  inhibition at 2 µg/mL: > 99%

## C#CCOc1ccc(Br)cc1/C=N/Nc1nc(-c2ccccc2)cs1 [Compound 25]
In vitro
  viability at 48 h, 100 μg ml^−1: > 75%
[1]; 50 µg/ml
  % Inhibition ± SD: 61.86 ± 1.85%
[1]; [2]
  inhibition at 50 µg/mL: 61%
[1]; [3]
  inhibition at 100 µg/mL: 66.2 ± 1.98%
[1]; Mycobacterium tuberculosis, concentration giving 50% inhibition of M. Tb H37Rv
  MIC: 50 µg/mL (≈ 121 µM)
other
  melting point: 195 to 197 °C

## C#CCOc1ccccc1/C=N/Nc1nc(-c2ccc(C#N)cc2)cs1 [Compound 13]
In vitro
  viability at 48 h, 100 μg ml^−1: > 75%
[1]; [2]
  inhibition at 50 µg/mL: 54.3 ± 1.62%
other
  melting point: 150 to 152 °C
